Laboratory results from US20230398153A1, “A METHOD FOR EFFICIENT MICROGLIA REPLACEMENT” (The Board of Trustees of the Leland Stanford Junior …, priority 2020, published 2023).

System: PB leukocytes and brain myeloid cells
Assay: Conventional HSCT after busulfan conditioning: GFP chimerism in peripheral blood and brain
Assay type: in vivo, mouse
Details: busulfan 5 days, IV GFP bone marrow
Protocol: FIG. 1. Microglia replacement after bone marrow transplantation is a slow, inefficient and variable process. (A) Schematic overview of bone marrow transplantation (HSCT). Recipient mice were received intraperitoneal (IP) injection of busulfan for 5 days at 25 mg/kg/day (i.e. 125 mg/kg total dose) and then transplanted with GFP-expressing bone marrow cells via intravenous (IV) injection. Donor chimerism in peripheral blood (PB) and brain myeloid cells was analyzed at the indicated time points. (B and C) Donor chimerism in PB leukocytes (CD45+ cells) and brain myeloid cells (CD45+CD11b+ cells) was analyzed by flow cytometry at the indicated time point. […] GFP chimerism in PB leukocytes (B) (Mean±SEM, n=5-20/time point, ***p<0.001, ns: not significant, ANOVA). […] (F) Quantification of transplanted GFP+bone marrow cells in coronal brain sections. […] Horizontal bars represent mean values (n=3/group, 3 brain slices/animal were quantified. **p<0.01, ***p<0.001, Student's t-test). […] (H) Microglia chimerism was analyzed by flow cytometry 14 days post IV injection. […]
The reported efficiencies of microglia replacement following HSCT in mice vary greatly in the literature. […] Brain chimerism was determined by sacrificing the mice, dissociating one hemisphere for flow cytometry analysis and fixing the other hemisphere for immunofluorescence analysis (FIG. 8A-C). […]

SMILES: CS(=O)(=O)OCCCCOS(C)(=O)=O [busulfan]
- GFP+ cells in peripheral blood (2 weeks after transplantation, average): about 40%
- degree of GFP chimerism among brain myeloid cells, range between mice (conventional HSCT without PLX5622): 7.09-73.4%
